Experimental data: patent US10351525B2, “Beta lactamase inhibitors” (Oxford University Innovation Limited, priority 2014, dated 2019)

What was measured:
Format in all cases: biochemical
SPM-1 = SPM-1 (Pseudomonas aeruginosa, UniProt Q8G9Q0); test: MBL screening assay (IC50), SPM-1
Procedure: (§1) Recombinant forms of NDM-1, NDM-1 M67C, VIM-1, VIM-2, SPM-1, IMP-1 and BcII MBLs were produced in Escherichia coli as described in J. Med. Chem. 56, 6945-6953 (2013) and Makena et al Chem MechCHem 8, 1923-9 (2013). Purified VIM-2 protein was dialysed into fresh crystallization buffer (50 mM HEPES pH 7.5, 150 mM NaCl and […], concentrated to 7.5 mg/mL and used for crystallographic analyses.
(§2) Kinetic and inhibition analyses and UV-VIS studies^16 against bacterial MBLs were performed as described by Van Berkel et al in J. Med. Chem. 56, 6945-6953 (2013) and Makena et al Chem MechCHem 8, 1923-9 (2013).
(§3) The experiments were performed by using a NovaStar microplate reader (using path length correction) and were performed at r.t. (24-25° C.). All enzymes and substrates were dissolved in the assay buffer: 50 mM HEPES-NaOH buffer (pH 7.2) supplemented with 1 μg/mL BSA (to minimize the denaturation of the enzyme), 1 μM ZnSO4 and 0.01% Triton 100. Screening was carried out against a panel of MBLs including NDM-1, VIM-1, VIM-2, SPM-1 (Sao Paulo MBL-1) and IMP-1 and the non-clinically relevant model MBL Bacillus cereus (BcII).
(§4) The kinetic values determined were the means from at least three independent measurements. […] The IC50 values were determined from the plot of activity (steady state rate) versus inhibitor concentration using the same software. […]

BcII = molecular target: T1, BcII (Bacillus cereus, UniProt P04190); test: MBL screening assay (IC50), BcII
T1 construct: made in house; host or cells: Escherichia coli
Procedure: as §1, §2, §3, §4

IMP-1 = molecular target: T2, IMP-1 (Serratia marcescens, UniProt P52699); test: MBL screening assay (IC50), IMP-1
T2 construct: made in house; host or cells: Escherichia coli
Procedure: as §1, §2, §3, §4

hACE-2 = molecular target: T3, hACE-2 (Homo sapiens, UniProt Q9BYF1); test: hACE 2 assay; conditions: for remaining activity at 100 µM: read-out: RA (residual activity); for Inhibition verdict: key: N.I.—not inhibited
T3 construct: purchased R&D Systems 933-ZN
Procedure: (§5) To investigate the selectivity of ML302/ML302F for bacterial MBLs, activity was tested against TEM-1 (a Class A SBL), PBP-5 (penicillin-binding protein 5 or dacA) and PBP-6 (penicillin-binding protein 6, or dacC) from E. coli, hHAT (human histone acetyltransferase) and hHDAC (human histone deacetylase). TEM-1, PBP-5 and -6 and hHAT are known to be inhibited by rhodanines. Selectively against hACE-2 (Angiotensin converting enzyme 2) and hHAGH (Hydroxyacylglutathione hydrolase, human Glyoxylase II) was also tested.
The inhibition analyses for human histone acetyltransferases (HAT), HDAC hHDAC (human histone deacetylase), hACE-2 (Angiotensin converting enzyme 2) and hHAGH (Hydroxyacylglutathione hydrolase, human Glyoxylase II) were performed using the commercially available HAT Assay Kit (Active Motif, catalogue No. 56100 (2009)), hHDAC (Active Motif, catalogue No. 56200 (2013)), hACE-2 (ACE-2 (R&D Systems) and hHAGH ((R&D Systems).
hACE 2 Assay (R&D systems):
• Assay Buffer: 75 mM Tris, 1 M NaCl, pH 7.5 • Recombinant Human ACE-2 (rhACE-2) (Catalog #933-ZN) • Substrate: MCA-Tyr-Val-Ala-Asp-Ala-Pro-Lys(DNP)-OH (Catalog # ES007), 10 mM stock in DMSO • F16 Black Maxisorp Plate (Nunc, Catalog #475515) • Fluorescent Plate Reader (Model: SpectraMax Gemini EM by Molecular Devices) or equivalent Assay: 1. Dilute rhACE-2 to 0.2 ng/μL in Assay Buffer. 2. Dilute Substrate to 40 μM in Assay Buffer. 3. Load in a black well plate 50 μL of […], and start the reaction by adding 50 μL of 40 μM Substrate. As a control load […] Substrate with 50 μL of Assay Buffer. 4. Read at excitation and emission wavelengths of 320 nm and 405 nm (top read), respectively in kinetic mode for 5 minutes. 5.

TEM-1 = TEM-1 (Escherichia coli, UniProt P62593); test: Inhibition studies TEM-1; conditions: for Inhibition verdict: TEM-1, 100 μM; for remaining activity at 100 µM: read-out: RA (residual activity); for Inhibition verdict: key: N.I.—not inhibited
Procedure: as §5
The inhibition analysis for TEM-1 was performed using the modified method that was previously described for MBLs.21 In brief: ML302 and ML302F were screened at a single concentration (100 μM) in duplicate. Inhibition was tested by pre-incubation of the appropriate amount of TEM-1 (1 nM final concentration) and ML302 or ML302F in the assay buffer (50 mM HEPES-NaOH buffer (pH 7.2) supplemented with 0.01% Triton 100) for 10 min. at r.t. prior to the initiation of the assay by the addition of FC5 ((6R,7R)-8-Oxo-3-(((2-oxo-2H-chromen-7-yl)oxy)methyl)-7-(2-phenylacetamido)-5-thia-1-azabicyclo[4.2.0]oct-2-ene-2-carboxylic acid 5,5-dioxide)21 (10 μM final concentration). The hydrolysis of FC5 was monitored by following the variation on fluorescence reading (380 nm—excitation and 460 nm—emission) using 384 well flat bottom plates (Greiner Bio-One). The experiments were performed on a PHERAstar FS-BMG Labtech microplate reader at r.t. (24-25° C.). All enzymes and inhibitors were prepared in the assay buffer.

VIM-1 = molecular target: T4, VIM-1 (Pseudomonas aeruginosa, UniProt A0A0F7KYQ8); test: MBL screening assay (IC50), VIM-1
T4 construct: made in house; host or cells: Escherichia coli
Procedure: as §1, §2, §3, §4

VIM-2 = molecular target: T5, VIM-2 (Escherichia coli, UniProt Q5U7L7); test: MBL screening assay (IC50), VIM-2
T5 construct: made in house; host or cells: Escherichia coli
Procedure: as §1, §2, §3
The kinetic values determined were the means from at least three independent measurements. At least six different concentrations of the substrate or inhibitor were used to determinate the kinetic parameters (KM, kcat and IC50). Determination of the steady state kinetic parameters for the hydrolysis of different substrates (KM and kcat) was performed by fitting the initial velocity data to the Michaelis-Menten equation using the software package Graph Prism 5.01. The IC50 values were determined from the plot of activity (steady state rate) versus inhibitor concentration using the same software.
IC50 values (concentration required to affect 50% inhibition of enzyme activity) were determined by preincubation of the appropriate amount of enzyme with the desired compound in the assay buffer for 10 min at r.t. prior to the initiation of the assay by the addition of the substrate. The compounds for inhibition study were prepared in 1 to 100 mM DMSO stock solutions.

SMILES: O=C(O)C(S)=Cc1c(Cl)ccc(Cl)c1Cl (racemic) [ML302F, 2-Mercapto-3-(2,3,6-trichlorophenyl)acrylic acid]
- IC50 (SPM-1): 1.76 ± 0.51 µM
- IC50 (BcII): 0.02 µM
- IC50 (IMP-1): 0.00288 µM
- Inhibition verdict (hACE-2): N.I.
- remaining activity at 100 µM (hACE-2; 100 μM): 99 ± 4%
- Inhibition verdict (TEM-1): N.I.
- remaining activity at 100 µM (TEM-1): 99.6 ± 3.1%
- IC50 (VIM-1): 0.44 ± 0.19 µM
- IC50 (VIM-2; IC50, VIM-2): 0.3 ± 0.09 µM

SMILES: CN1CCN(NC(=O)CN2C(=O)C(=Cc3c(Cl)ccc(Cl)c3Cl)SC2=S)CC1 (mixture of isomers) [ML302, N-(4-Methylpiperazin-1-yl)-2-(4-oxo-2-thioxo-5-(2,3,6-trichlorobenzylidene)thiazolidin-3-yl)acetamide]
- IC50 (SPM-1): 1.32 ± 0.62 µM
- IC50 (BcII): 0.5 ± 0.15 µM
- IC50 (IMP-1): 0.175 ± 0.06 µM
- RA (residual activity) (hACE-2; 100 μM): 73 ± 9 ^ %
- remaining activity at 100 µM (hACE-2; 100 μM): ~75%
- Inhibition verdict (TEM-1): N.I.
- remaining activity at 100 µM (TEM-1): 98.6 ± 7.1%
- IC50 (VIM-1): 0.66 ± 0.25 µM
- IC50 (VIM-2; IC50, VIM-2): 0.49 ± 0.18 µM
- IC50 (VIM-2; IC50 value against VIM-2 obtained using this assay, VIM-2): 0.498 ± 0.018 µM
